Experiments:
Assay type in all cases: in vivo
Conditions in all cases: 250 g/ha, evaluated after 13 days, 100=total damage to plant, 0=no damage to plant
[1] = tested on: Digitaria sanguinalis (DIGSA); test: Post-emergence biological efficacy, DIGSA
Protocol: (§1) Seeds of weeds and/or crops were sown in standard soil in pots (Amaranthus palmeri (AMAPA), (CHEAL), Euphorbia heterophylla (EPHHL), Ipomoea hederacea (IPOHE), Eleusine indica (ELEIN), Lolium perenne (LOLPE), Digitaria sanguinalis (DIGSA), Setaria faberi (SETFA), Echinochloa crus-galli (ECHCG)). After cultivation for 14 days under controlled conditions in a glasshouse (at 24/19° C., day/night; 16 hours light), the plants were sprayed with an aqueous spray solution derived from the formulation of the technical active ingredient in a small amount of acetone and a special solvent and emulsifier mixture referred to as IF50 (11.12% Emulsogen EL360 TM+44.44% N-methylpyrrolidone+44.44% Dowanol DPM glycol ether), to create a 50 g/l solution which was then diluted using 0.2% Genapol XO80 as diluent to give the desired final dose of test compound. Compounds were applied at a 250 g/ha unless otherwise stated. The test plants were then grown under controlled conditions in the glasshouse (at 24/18° C., day/night; 15 hours light; 50% humidity) and watered twice daily. After 13 days the test was evaluated (100=total damage to plant; 0=no damage to plant).

[2] = tested on: Ipomoea hederacea (IPOHE); test: Post-emergence biological efficacy, IPOHE
Protocol: as §1

[3] = tested on: Setaria faberi (SETFA); test: Pre-emergence biological efficacy, SETFA
Protocol: as §1, with “Lolium perenne (LOLPE),” for “(CHEAL),”, “(EPHHL),” for “(EPHHL), Ipomoea hederacea (IPOHE), Eleusine indica (ELEIN), Lolium perenne (LOLPE), Digitaria sanguinalis (DIGSA),”, “(ECHCG), Ipomoea hederacea (IPOHE)).” for “(ECHCG)).”, “one day” for “14 days”, “X080” for “XO80”

[4] = tested on: Euphorbia heterophylla (EPHHL); test: Post-emergence biological efficacy, EPHHL
Protocol: as §1

[5] = tested on: Lolium perenne (LOLPE); test: Pre-emergence biological efficacy, LOLPE
Protocol: as §1, with “Lolium perenne (LOLPE),” for “(CHEAL),”, “(EPHHL),” for “(EPHHL), Ipomoea hederacea (IPOHE), Eleusine indica (ELEIN), Lolium perenne (LOLPE), Digitaria sanguinalis (DIGSA),”, “(ECHCG), Ipomoea hederacea (IPOHE)).” for “(ECHCG)).”, “one day” for “14 days”, “X080” for “XO80”

[6] = tested on: Ipomoea hederacea (IPOHE); test: Pre-emergence biological efficacy, IPOHE
Protocol: as §1, with “Lolium perenne (LOLPE),” for “(CHEAL),”, “(EPHHL),” for “(EPHHL), Ipomoea hederacea (IPOHE), Eleusine indica (ELEIN), Lolium perenne (LOLPE), Digitaria sanguinalis (DIGSA),”, “(ECHCG), Ipomoea hederacea (IPOHE)).” for “(ECHCG)).”, “one day” for “14 days”, “X080” for “XO80”

[7] = tested on: Amaranthus palmeri (AMAPA); test: Post-emergence biological efficacy, AMAPA
Protocol: as §1

[8] = tested on: Euphorbia heterophylla (EPHHL); test: Pre-emergence biological efficacy, EPHHL
Protocol: as §1, with “Lolium perenne (LOLPE),” for “(CHEAL),”, “(EPHHL),” for “(EPHHL), Ipomoea hederacea (IPOHE), Eleusine indica (ELEIN), Lolium perenne (LOLPE), Digitaria sanguinalis (DIGSA),”, “(ECHCG), Ipomoea hederacea (IPOHE)).” for “(ECHCG)).”, “one day” for “14 days”, “X080” for “XO80”

[9] = tested on: Amaranthus palmeri (AMAPA); test: Pre-emergence biological efficacy, AMAPA
Protocol: as §1, with “Lolium perenne (LOLPE),” for “(CHEAL),”, “(EPHHL),” for “(EPHHL), Ipomoea hederacea (IPOHE), Eleusine indica (ELEIN), Lolium perenne (LOLPE), Digitaria sanguinalis (DIGSA),”, “(ECHCG), Ipomoea hederacea (IPOHE)).” for “(ECHCG)).”, “one day” for “14 days”, “X080” for “XO80”

[10] = tested on: Echinochloa crus-galli (ECHCG); test: Pre-emergence biological efficacy, ECHCG
Protocol: as §1, with “Lolium perenne (LOLPE),” for “(CHEAL),”, “(EPHHL),” for “(EPHHL), Ipomoea hederacea (IPOHE), Eleusine indica (ELEIN), Lolium perenne (LOLPE), Digitaria sanguinalis (DIGSA),”, “(ECHCG), Ipomoea hederacea (IPOHE)).” for “(ECHCG)).”, “one day” for “14 days”, “X080” for “XO80”

[11] = tested on: Eleusine indica (ELEIN); test: Post-emergence biological efficacy, ELEIN
Protocol: as §1

[12] = tested on: Echinochloa crus-galli (ECHCG); test: Post-emergence biological efficacy, ECHCG
Protocol: as §1

[13] = tested on: Setaria faberi (SETFA); test: Post-emergence biological efficacy, SETFA
Protocol: as §1

[14] = tested on: CHEAL; test: Post-emergence biological efficacy, CHEAL
Protocol: as §1

[15] = tested on: Lolium perenne (LOLPE); test: Post-emergence biological efficacy, LOLPE
Protocol: as §1

Compound | damage to plant, DIGSA [1] | damage to plant, IPOHE [2] | damage to plant, SETFA [3] | damage to plant, EPHHL [4] | damage to plant, LOLPE [5] | damage to plant, IPOHE [6] | damage to plant, AMAPA [7] | damage to plant, EPHHL [8] | damage to plant, AMAPA [9] | damage to plant, ECHCG [10] | damage to plant, ELEIN [11] | damage to plant, ECHCG [12] | damage to plant, SETFA [13] | damage to plant, CHEAL [14] | damage to plant, LOLPE [15]
CCOC(=O)C[C@H](C)OC(=O)c1cc(-c2ncc(C(F)(F)F)cc2Cl)c(F)cc1Cl [Compound 2-525 (S-enantiomer), [(1S)-3-ethoxy-1-methyl-3-oxo-propyl] 2-chloro-5-[3-chloro-5-(trifluoromethyl)-2-pyridyl]-4-fluoro-benzoate] | 100 | 100 | 100 | 100 | 100 | 100 | 100 | 100 | 100 | 100 | 100 | 100 | 100 | 100 | 100
CCOC(=O)C[C@H](C)OC(=O)c1cc(-c2ncc(C(F)(F)F)cc2Cl)ccc1Cl [Compound 1-525 (S-enantiomer), [(1S)-3-ethoxy-1-methyl-3-oxo-propyl] 2-chloro-5-[3-chloro-5-(trifluoromethyl)-2-pyridyl]-benzoate] | 100 | 90 | 100 | 100 | 100 | 70 | 100 | 100 | 100 | 100 | 100 | 100 | 100 | 100 | 100
CCOC(=O)C[C@@H](C)OC(=O)c1cc(-c2ncc(C(F)(F)F)cc2Cl)c(F)cc1Cl [Compound 2-525 (R-enantiomer), [(1R)-3-ethoxy-1-methyl-3-oxo-propyl] 2-chloro-5-[3-chloro-5-(trifluoromethyl)-2-pyridyl]-4-fluoro-benzoate] | 100 | 100 | 100 | 100 | 100 | 60 | 100 | 100 | 100 | 100 | 100 | 100 | 100 | 100 | 100
COC(=O)C[C@H](C)OC(=O)c1nc(-c2ncc(C(F)(F)F)cc2Cl)c(F)cc1Cl [Compound 11-524 (S-enantiomer), [(1S)-3-methoxy-1-methyl-3-oxo-propyl] 3-chloro-6-[3-chloro-5-(trifluoromethyl)-2-pyridyl]-5-fluoro-pyridine-2-carboxylate] | 100 | 100 | 100 | 100 | 100 | 100 | 100 | 100 | 100 | 100 | 100 | 100 | 100 | 100 | 100
CCOC(=O)CC(C)OC(=O)c1cc(-c2ncc(C(F)(F)F)cc2Cl)ccc1Cl (stereo not drawn) [Compound 1-525, (3-ethoxy-1-methyl-3-oxo-propyl) 2-chloro-5-[3-chloro-5-(trifluoromethyl)-2-pyridyl]benzoate] | 100 | 80 | 100 | 100 | 100 | 70 | 100 | 100 | 100 | 100 | 100 | 100 | 100 | 100 | 100

From patent publication US20250212879A1, “HERBICIDAL COMPOUNDS” (SYNGENTA CROP PROTECTION AG, priority 2022, published 2025)
